Test results taken from publication PMC10488193, “Evaluation of the Chemical Stability, Membrane Permeability and Antiproliferative Activity of Cyclic Diarylheptanoids from European Hornbeam (Carpinus betulus L.)” (International Journal of Molecular Sciences, 2023).
Like-named read-outs stand apart in the source and are kept apart here.

Tests used:
[1] = cited from earlier work
[2] = tested on: HL-60 (acute promyelocytic leukaemia); assay: In vitro antiproliferative activity, Alamar Blue assay; type: cell-based; conditions: Homo sapiens
Experimental: (§1) For the experiments, the following human cell lines were used: A2058 (melanoma, derived from metastatic site: lymph node), HepG2 (hepatocellular carcinoma), U87 (glioblastoma), HT-29 (colorectal carcinoma) and HL-60 (acute promyelocytic leukaemia). Cell lines were generous gifts from Dr. […] (Department of Experimental Pharmacology, National Institute of Oncology, Budapest, Hungary). […] The cultures were maintained at 37 °C in a humidified atmosphere with 5% CO2. The cells were grown to confluency and then divided into 96-well tissue culture plates (Sarstedt, Nümbrecht, Germany) with an initial cell number of 5000 cells/well. Cells were incubated at 37 °C in a 5% CO2 humidified atmosphere overnight. Before the assay, 50 μL of the supernatant was removed and replaced with a 50 μL serum-free medium (SFM). […] The cells were treated for 24 h with the compounds and negative control cells (no compound control) were treated with SFM only (incubated at 37 °C). […] The percentage of cytostasis was calculated with the following equation: […] Data were evaluated with Excel (version: 365; Microsoft, Redmond, WA, USA) and the curves were defined using Microcal OriginPro (version: 2018; OriginLab, Northampton, MA, USA) software. In each case, two independent experiments were carried out with four parallel measurements and the mean IC50 values together with ±SD were represented. The Excel (version: 365) (Microsoft, Redmond, WA, USA) and Microcal OriginPro (version: 2018) (OriginLab, Northampton, MA, USA) softwares were used for data evaluation.

U87 (glioblastoma) = assay: as above; type: cell-based; conditions: Homo sapiens, read-out: IC50 ± SD
Experimental: as §1

[3] = tested on: HepG2 (hepatocellular carcinoma); assay: as above; type: cell-based; conditions: Homo sapiens
Experimental: as §1

[4] = tested on: A2058 (melanoma, derived from metastatic site: lymph node); assay: as above; type: cell-based; conditions: Homo sapiens
Experimental: as §1

[5] = design: method as in PMID 28074653; conditions: ambient temperature, solvolysis and oxidative degradation; cited from earlier work
[6] = tested on: HT-29 (colorectal carcinoma); assay: In vitro antiproliferative activity, Alamar Blue assay; type: cell-based; conditions: Homo sapiens
Experimental: as §1

[7] = U87, 24 h treatment, then three days culture, n = 2
[8] = HepG2, 24 h treatment, then three days culture, n = 2, read-out: IC50 ± SD
[9] = A2058, 24 h treatment, then three days culture, n = 2, read-out: IC50 ± SD

## O=C(/C=C/CCc1ccc(O)c(O)c1)CCc1ccc(O)c(O)c1 [Hirsutenone, hirsutenone]
[1]; aqueous solution, 25 °C
  half-life: 139 h
[1]; aqueous solution, 50 °C
  half-life: 38.2 h
[1]; room temperature
  half-life: less than seven days

## O=C(Nc1ccc(C(F)(F)F)cc1)c1cc(Cl)ccc1O [Sal, 5-chloro-2-hydroxy-N-[4-(trifluoromethyl)phenyl]benzamide, reference compound]
[2]; HL-60, 24 h treatment, then three days culture, n = 2, read-out: IC50 ± SD
  IC50: 4.5 ± 0.7 µM
U87 (glioblastoma); [7]
  IC50: 0.8 ± 0.3 µM
[3]; [8]
  IC50: 5.8 ± 0.7 µM
[4]; [9]
  IC50: 6.8 ± 1.2 µM

## COc1cc(/C=C/C(=O)CC(=O)/C=C/c2ccc(O)c(OC)c2)ccc1O [Curcumin, curcumin]
[5]
  half-life: less than an hour

## COc1cc([C@@H]2c3cc4c(cc3[C@@H](O[C@@H]3O[C@@H]5CO[C@@H](C)O[C@H]5[C@H](O)[C@H]3O)[C@H]3COC(=O)[C@H]23)OCO4)cc(OC)c1O [Etoposide, etoposide, reference compound]
[6]; HT-29, 24 h treatment, then three days culture, n = 2, read-out: IC50 ± SD
  IC50: 18.5 ± 1.7 µM
U87 (glioblastoma); [7]
  IC50: 27 ± 2.3 µM
[3]; [8]
  IC50: 20.9 ± 1.2 µM
[4]; [9]
  IC50: 8.9 ± 0.2 µM

## COc1cccc2c1C(=O)c1c(O)c3c(c(O)c1C2=O)C[C@@](O)(C(C)=O)C[C@@H]3O[C@H]1C[C@H](N)[C@H](O)[C@H](C)O1 [Dau, daunomycin, reference compound]
[2]; HL-60, read-out: IC50 ± SD
  IC50: 0.02 ± 0.01 µM
[6]; HT-29, read-out: IC50 ± SD
  IC50: 0.2 ± 0.01 µM
U87 (glioblastoma)
  IC50: 0.4 ± 0.05 µM
[3]; HepG2, read-out: IC50 ± SD
  IC50: 1.2 ± 0.2 µM
[4]; A2058, read-out: IC50 ± SD
  IC50: 0.16 µM
